Experimental findings from patent US7241905B2, “Dioxin analogues and methods and kits for searching out dioxins-decomposing organisms or enzymes or dioxin-decomposing enzyme genes” (Forestry and Forest Products Research Institute, priority 2001, dated 2007) are described below.

Type in all cases: cell-based
In experiment [1] the test system is Pleurotus pulumonairus. Kind of experiment: Degradation of dioxin in fungal culture, measured with a dioxin immunoassay kit. The settings on record: P. pulumonairus culture; 0.5 ppm; cultured 20 days; control medium without fungus 0%. As for the experimental part: (§1) Pleurotus pulumonairus, which has proven to cause the most intense fluorescence in Examples 3 and 4, was examined for its ability to degrade dioxin.
(§2) As in Examples 3 and 4, Pleurotus pulumonairus was cultured in a culture medium containing glucose and peptone and, on day 7, 2,3,7,8-tetrachlorodioxin was added to the medium at a final concentration of 0.5 ppm. The fungus was subsequently cultured for 20 days. After the culturing period, the culture medium containing the fungus was freeze-dried and was subjected to extraction by refluxing with hexane. Hexane was then removed by distillation and the remaining culture was diluted 200-fold with 200 ml methanol containing 100 ppm Triton X-100. Using a High Performance Dioxin Immunoassay Kit (Cape Technologies, United States) according to the manufacturer's instruction, the concentration of dioxin was measured to determine the degradation rate of dioxin. A control shown in Table 2 is the above-described culture medium with only 2,3,7,8-tetrachlorodioxin added. Fomitopsis palustris was used as a negative control.

In experiment [2] the test system is Fomitopsis palustris. Described as above. Conditions: F. palustris culture (negative control fungus), 0.5 ppm, cultured 20 days, attributed to non-specific binding to fungal cells. Here is the method:
as §1, §2

For another experiment, the system named is Grammothele fuligo WD844. The experiment can be described thus: Screening of wood-rotting fungi for degradation of the esculetin-type dioxin analogue (fluorescence of metabolites). Conditions: G. fuligo WD844 culture; substrate 1 ppm; day 7; excitation 350 nm, emission 450 nm; control medium without fungus 1370. As for the experimental part:
(§3) Different species of wood-rotting fungi (i.e., Grammothele fuligo WD844, Phanerochaete crassa WD1694, Phanerochaete chrysosporium ME446, Fomitopsis palustris, Coriolus versicolor, and Pleurotus pulumonairus) were used as test subjects and were screened for the ability to degrade the dioxin analogue obtained in Example 1 (esculetin-type analogue).
(§4) Each subject fungal species, which had been pre-cultured on potato agar and stamped out of the agar using a cork borer, was inoculated onto 10 ml modified NS medium (3% glucose, 1% peptone, inorganic salts, pH 5.0) in a 100 ml Erlenmeyer flask and was cultured for 5 to 7 days at 28° C. Subsequently, a 100 μl DMSO solution containing the substrate (esculetin-type dioxin analogue obtained in Example 1) at a final concentration of 1 ppm was added to the culture. The solution was added so that the concentration of DMSO in the medium was 1%. Samples of the culture solution were collected at predetermined time intervals (i.e., 1, 3, and 5 days after the addition of the substrate). To a 100 μl portion of each sample, 1.9 ml of an alkaline buffer (100 mM glycine, 100 mM sodium hydroxide, pH 10.0) was added. The sample mixtures were then exposed to long-range UV light (365 nm) as excitation light and were visually screened for those emitting fluorescence. On day 7, the samples were irradiated with excitation light of 350 nm and, using a fluorescence spectrophotometer, the intensity of fluorescence was measured at 450 nm. A control shown in Table 1 is the above-described culture medium with only dioxin analogue (esculetin-type) added.

In experiment [3] the test system is Phanerochaete crassa WD1694. The description is as above. The settings on record: P. crassa WD1694 culture; substrate 1 ppm; day 7; excitation 350 nm, emission 450 nm; control medium without fungus 1370. As for the experimental part:
as §3, §4

In experiment [4] the test system is Pleurotus pulumonairus. Described as above. The settings on record: P. pulumonairus culture; substrate 1 ppm; day 7; excitation 350 nm, emission 450 nm; control medium without fungus 1370. Here is the method:
as §3, §4

In experiment [5] the test system is Phanerochaete chrysosporium ME446. Described as above. Conditions: P. chrysosporium ME446 culture; substrate 1 ppm; day 7; excitation 350 nm, emission 450 nm; control medium without fungus 1370. As for the experimental part: as §3, §4
Experiment [6] has as its system Fomitopsis palustris. Described as above. The settings on record: F. palustris culture; substrate 1 ppm; day 7; excitation 350 nm, emission 450 nm; control medium without fungus 1370. As for the experimental part: as §3, §4
The next experiment deals with Coriolus versicolor. Described as above. The settings on record: C. versicolor culture; substrate 1 ppm; day 7; excitation 350 nm, emission 450 nm; control medium without fungus 1370. As for the experimental part: as §3, §4
Experiment [7] has as its system Pleurotus pulumonairus. Kind of experiment: Screening of wood-rotting fungi for degradation of the naphthalene-type dioxin analogue (visual fluorescence). Conditions: P. pulumonairus culture; substrate 1 ppm; samples 1, 3 and 5 days after addition; UV 365 nm; compared with the other five fungi. Here is the method: Different species of wood-rotting fungi (i.e., Grammothele fuligo WD844, Phanerochaete crassa WD1694, Phanerochaete chrysosporium ME446, Fomitopsis palustris, Coriolus versicolor, and Pleurotus pulumonairus) were used as test subjects and were screened for the ability to degrade the dioxin analogue obtained in Example 2 (naphthalene-type analogue).
as §4, with “pH5.0)” for “pH 5.0)”, “naphthalene-type” for “(esculetin-type”, “2” for “1)”, “μportion” for “μl portion”, “pH10.0)” for “pH 10.0)”, “fluorescence.” for “fluorescence. On day 7, the samples were irradiated with excitation light of 350 nm and, using a fluorescence spectrophotometer, the intensity of fluorescence was measured at 450 nm. A control shown in Table 1 is the above-described culture medium with only dioxin analogue (esculetin-type) added.”

As to `Clc1cc2c(cc1Cl)Oc1cc(Cl)c(Cl)cc1O2` [2,3,7,8-tetrachlorodioxin], the Degradation rate with Pleurotus pulumonairus [1] came to 31%; with Fomitopsis palustris [2], 9%; in the experiment with Fomitopsis palustris [2] (listed as dioxin), 9%.

Take `Cc1cc(=O)oc2cc3c(cc12)Oc1cc(Cl)c(Cl)cc1O3` [Example 1]: the Fluorecsence intensity in the experiment with Grammothele fuligo WD844 is recorded as 1639; in experiment [3], 1419; in the experiment on Pleurotus pulumonairus [4] it was 2203; in [5], 1619; in the experiment on Fomitopsis palustris [6], 1314; with Coriolus versicolor it was 1601.

For the compound `Clc1cc2c(cc1Cl)Oc1cc3ccccc3cc1O2` [Example 2], the “Fluorescence emission, visually screened” value with Pleurotus pulumonairus [7] is “most intense fluorescence emission”.
